Data from patent publication US10039844B2, “Imaging tumor glycolysis by non-invasive measurement of pyruvate kinase M2” (The Board of Trustees of the Leland Stanford Junior …, priority 2014, dated 2018).

Tests used:
[1] = tested on: PKM2 in orthotopic GBM39 PDX tumors; assay: PET imaging of orthotopic GBM39 PDX tumors at baseline and after TEPP-46 blocking; type: in vivo, mouse
Method: (§1) In vivo Tumor Models: For subcutaneous tumor models, U87 tumor cells (5×10^6 cells; 100 μL PBS) were injected subcutaneously on the back of female BALB/c nude mice (aged 6-8 weeks; Charles River Laboratories) and grown to approximately 150 mm^3. Tumor dimensions were measured periodically using a caliper (by the same experienced researcher), with tumor volumes calculated by the equation: volume=(π/6)×a×b×c, where a, b, and c represent three orthogonal axes of the tumor. For orthotopic brain tumor models, 2×10^5 U87 cells were implanted 0.5 mm anterior and 2 mm to the right of the bregma in the brains of 6-8 week-old nude mice, held in place using a stereotactic unit. The cells, suspended in 4 μL PBS, were injected at a depth of 3 mm over 5 min with an AS blunt-ended Hamilton syringe, which was subsequently held in place for a further 5 min. Animals were anaesthetized with an i.p. injection of 150 mg/kg ketamine, 15 mg/kg xylazine. Mice were subsequently imaged by MRI and PET 32-35 days post intracranial injection and GBM39 tumor-bearing mice were imaged between 44-50 days after implantation.
(§2) PET imaging scans were carried out on a docked Siemens Inveon PET/CT scanner (matrix size, 128×128×159; CT attenuation-corrected; non-scatter corrected), following a bolus i.v. injection of approximately 18.5 MBq of [^11C]DASA-23 into tumor-bearing mice. Dynamic scans were acquired in list mode format over 60 min. The acquired data were then sorted into 0.5-mm sinogram bins and 19 time frames for image reconstruction (4×15 s, 4×60 s and 11×300 s), which was done by iterative reconstruction using the following parameters: 3D ordered-subsets expectation maximization (3D-OSEM) followed by fast maximum a posteriori (fastMAP); MAP OSEM interations, 2; MAP subsets, 16; MAP iterations, 18.
(§3) The count densities were averaged for all volumes of interest at each time point to obtain a time versus radioactivity curve (TAC). Tumor and tissue TACs were normalized to injected dose, measured by a CRC-15 PET dose calibrator (Capintec, Inc.), and expressed as percentage injected dose per milliliter of tissue (% ID/mL). The area under the TAC, calculated as the integral of % ID/mL from 0 to 60 min, and the normalized uptake of radiotracer at 60 min (% ID/mL60) were also used for comparisons. Siemens Inveon Research Workplace software (v.4.0) was used for visualization of radiotracer uptake in the tumor, to define the three-dimensional (3D) volumes of interest (VOI) and for 3D-visualization to create volume rendering technique (VRT) images.

PKM2 [2] = target: T1, PKM2 (Homo sapiens, UniProt P14618); assay: Radiotracer uptake after PKM2 siRNA knockdown in HeLa cells; type: cell-based; design: endogenous in cells; host or cells: HeLa
Method: PKM2 siRNA: Time course PKM2 knockdown in HeLa cells was assessed over 72 h post-transfection. Cells were seeded in 6-well plates in antibiotic-free DMEM at 1.5×10^6 cells/well 24 h prior to siRNA transfection with DharmaFECT1 (Thermo Scientific), according to the manufacturer's instruction. Specific siRNA targeting only PKM2 were custom made by Thermo Scientific using the following sequences: […] (sense) (SEQ ID NO: 1), […] (antisense) (SEQ ID NO: 2). Scrambled siRNA (siCtrl; Cell Signaling Technology) was used as a control. siRNA were added at a final concentration of 25 nM. [^11C]DASA-23 uptake (0.925 MBq/mL) was measured after 30 min in cells transfected with siCtrl and siPKM2 at 24 h, 48 h and 72 h post transfection, and processed as described in Example 4, above. Untreated cells were used as a further control, measured 24 h post addition of fresh DMEM and 96 h post seeding.
Western Blotting: Monoclonal rabbit antibody to PKM1 and PKM2 (1:1000 dilution, Cell Signaling Technology) were used in a standard western blotting protocol. A rabbit anti-actin antibody (Sigma-Aldrich Co. Ltd; 1:2000) was used as a loading control. Blots were scanned and signal quantification was performed using ImageJ (National Institutes of Health).
Target sequence in this assay (P14618 2-531 limits assumed): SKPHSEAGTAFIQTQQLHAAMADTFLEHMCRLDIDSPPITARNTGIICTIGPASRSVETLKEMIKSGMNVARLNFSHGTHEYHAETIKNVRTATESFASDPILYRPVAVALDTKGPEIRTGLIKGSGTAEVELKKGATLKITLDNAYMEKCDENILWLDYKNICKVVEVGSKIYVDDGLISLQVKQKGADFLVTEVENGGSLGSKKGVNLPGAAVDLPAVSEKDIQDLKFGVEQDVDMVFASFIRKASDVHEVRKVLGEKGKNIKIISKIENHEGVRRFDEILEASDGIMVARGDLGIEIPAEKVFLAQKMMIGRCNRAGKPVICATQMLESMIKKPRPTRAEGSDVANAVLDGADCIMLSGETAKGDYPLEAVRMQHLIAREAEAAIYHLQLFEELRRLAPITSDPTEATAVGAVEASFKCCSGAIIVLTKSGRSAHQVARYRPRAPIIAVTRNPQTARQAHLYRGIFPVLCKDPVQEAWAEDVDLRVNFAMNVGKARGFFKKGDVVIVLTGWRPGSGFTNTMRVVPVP

[3] = tested on: subcutaneous U87 human glioma xenografts; assay: PET/CT and ex vivo biodistribution in mice bearing subcutaneous U87 xenografts; design: species or system mouse
Method: as §1, §2, §3
Ex vivo Biodistribution: After the PET imaging studies, 60 min post radiotracer administration, mice were sacrificed by exsanguination via cardiac puncture and tissues harvested. Tissue radioactivity for all organs was subsequently determined on a gamma counter (decay-corrected; Cobra II Auto-Gamma counter, Packard Biosciences Co, Pangbourne, UK). Ten-microliter standards from the stock activity were also counted for data normalization. Data were expressed as percent injected dose per gram of tissue (% ID/g).

U87 human glioma cells = assay: Cell uptake and efflux of radiotracer in U87 cells; type: cell-based
Method: (§4) Cell Uptake and Efflux Studies: U87 and HeLa cells (2×10^5) were plated into 6-well plates overnight before [^11C]DASA-23 uptake analysis. On the day of the experiment, fresh, pre-warmed DMEM containing 0.925 MBq of [^11C]DASA-23 was added to individual wells (1 mL/well, 9.25±4.63 pmol).
(§5) Cells were incubated with [^11C]DASA-23 at 37° C. and 5% CO2 over a 60 min time course. At the respective time points, plates were placed on ice, washed 3 times with ice-cold phosphate-buffered saline (PBS), and lysed in radioimmunoprecipitation assay buffer (Thermo Fisher Scientific Inc.; 500 μL). 300 μL cell lysates were transferred to counting tubes and decay-corrected radioactivity was determined on a y counter (Cobra II Auto-Gamma counter; Packard Biosciences Co.). The remaining lysate was frozen and used following radioactive decay for protein determination using a bicinchoninic acid (BCA) 96-well plate assay (Thermo Fisher Scientific Inc.) and for immunoblotting. In addition, 10 μL standards from the 0.925 MBq/mL solution added to cells were counted to quantitate percentage radiotracer uptake. For efflux studies, cells were incubated with radiotracer for 60 min, washed 3 times with room temperature (RT) Hank's Buffered Salt Solution (HBSS) before subsequent incubation at 37° C. in fresh, radiotracer-free, DMEM. At allotted times, samples were processed.

[4] = tested on: orthotopic U87 human gliomas; assay: PET imaging of orthotopic U87 tumors in mice; type: in vivo, mouse; settings: 30 min after injection
Method: as §1, with “Animals were anaesthetized with an i.p. injection of 150 mg/kg ketamine, 15 mg/kg xylazine. Mice were subsequently imaged by MRI and PET 32-35 days post intracranial injection and GBM39 tumor-bearing mice were imaged between 44-50 days after implantation.” left out
as §3, with “Siemens Inveon Research Workplace software (v.4.0) was used for visualization of radiotracer uptake in the tumor, to define the three-dimensional (3D) volumes of interest (VOI) and for 3D-visualization to create volume rendering technique (VRT) images.” left out

PKM2 [5] = target: T1, PKM2; settings: versus PKM1, PKR and PKL; cited from earlier work
Target sequence in this assay (P14618 whole entry, species assumed): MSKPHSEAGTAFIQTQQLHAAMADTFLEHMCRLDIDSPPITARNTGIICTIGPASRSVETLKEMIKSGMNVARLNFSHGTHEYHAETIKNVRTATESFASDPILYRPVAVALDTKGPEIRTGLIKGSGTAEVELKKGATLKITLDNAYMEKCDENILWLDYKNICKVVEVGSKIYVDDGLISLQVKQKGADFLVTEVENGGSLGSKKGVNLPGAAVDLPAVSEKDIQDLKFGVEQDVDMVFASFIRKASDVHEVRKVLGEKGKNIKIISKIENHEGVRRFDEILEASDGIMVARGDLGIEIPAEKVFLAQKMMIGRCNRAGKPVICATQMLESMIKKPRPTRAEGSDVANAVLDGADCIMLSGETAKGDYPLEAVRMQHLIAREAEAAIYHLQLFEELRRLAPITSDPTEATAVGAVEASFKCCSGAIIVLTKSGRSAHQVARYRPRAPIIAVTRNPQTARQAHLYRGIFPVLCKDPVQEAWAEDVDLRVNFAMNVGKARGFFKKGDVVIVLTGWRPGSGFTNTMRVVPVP

HeLa cells = assay: Cell uptake and efflux of radiotracer in HeLa cells; type: cell-based, human
Method: as §4, §5

[6] = Ex vivo mouse plasma stability; type: in vitro ADME; settings: after 60 min, 37° C.
Method: Plasma Stability: [^11C]DASA-23 stability in mouse plasma was assessed ex vivo according to previously described methodology (James et al., (2012) J. Med. Chem. 55: 8272-8282, incorporated herein by reference in its entirety.
Samples were incubated for 10 min, 30 min, and 60 min and compared to a standard from the respective injected probe.

[7] = 30 min post removal of exogenous radiotracer

## Cn1c2cc([S+](C)[O-])sc2c2cnn(Cc3cccc(N)c3)c(=O)c21 (centres unmarked) [TEPP-46, 6-((3-Aminophenyl)methyl)-4-methyl-2-methylsulfinylthieno[3,4]pyrrolo[1,3-d]pyridazin-5-one, reference compound]
[1]; TEPP-46 50 mg/kg i.p., 1 hour before radiotracer
  decrease of tumor-associated [^11C]DASA-23 retention: 42%
[1]; one hour after TEPP-46 injection
  effect on [^11C]DASA-23 tumor signal: complete ablation of tumor signal to background levels

## [11CH3]Oc1ccc(S(=O)(=O)N2CCN(S(=O)(=O)c3c(F)cccc3F)CC2)cc1 [[^11C]DASA-23, 1-((2,6-difluorophenyl)sulfon-yl)-4-((4-(methoxy-^11C)phenyl)sulfonyl)piperazine]
PKM2 [2]; 24 h post transfection
  reduction in uptake in siPKM2 cells versus control siRNA: 16.5%
PKM2 [2]; 72 h post transfection
  uptake in siPKM2 cells as % of siCtrl cells: 44.5%
[1]; GBM39 tumor, 30 min after radiotracer injection
  tumor-associated retention at baseline: 1.61±0.25 % ID/g
[1]; GBM39 tumor, 30 min after radiotracer injection, 1 hour after TEPP-46 50 mg/kg i.p.
  tumor-associated retention after TEPP-46: 0.93±0.10 % ID/g
[1]; GBM39 tumor-bearing mice
  uptake in control, contralateral healthy brain: 0.79±0.18 % ID/g
[3]; 60 min post injection
  uptake ratio of U87 tumor to blood: 1.1
  uptake ratio of U87 tumor to brain: 2.1
  uptake ratio of U87 tumor to muscle: 1.6
[3]; dynamic PET, normal brain, after injection
  time of peak brain uptake: 30 s
[3]; dynamic PET, post injection
  time to reach background levels in brain: ≤ 10 min
[3]; dynamic PET, subcutaneous U87 tumor
  time of peak tumor uptake: 10 min
[3]; ex vivo biodistribution
  accumulation in the brain: did not accumulate in the brain
[3]; ex vivo biodistribution, 60 min post injection
  U87 tumor uptake: 1.78±0.23 % of the injected dose (ID)/g
U87 human glioma cells; [7]
  initial intracellular radioactivity retained: about 40%
U87 human glioma cells; by 30 min
  cellular uptake: 19.6±2.0 % radioactivity/mg protein
[4]
  radioactivity in the contralateral background tissue: 0.78±0.18 % ID/g
[4]; orthotopic U87 tumor
  radioactivity in the tumor: 1.68±0.47 % ID/g
PKM2 [5]
  selectivity of activation versus other pyruvate kinase isozymes: selective activation of PKM2
HeLa cells; [7]
  initial intracellular radioactivity retained: about 40%
HeLa cells; by 30 min
  cellular uptake: 14.9±2.0 %radioactivity/mg protein
[6]
  parent remaining in plasma: > 96%
